From patent US20050267016A1, “CD-10 activated prodrug compounds” (priority 2001, published 2005)
Like-named read-outs stand apart in the source and are kept apart here. Marks after values point to notes of the source that are not given here.

Experiments:
[1] = Metabolism and clearance in normal mice (plasma and urine, LC MS/MS); format: in vivo; details: for dose excreted: iv, 117 mg/kg
Procedure: The metabolism and clearance of Suc-Ile-Ala-Leu-Dox was studied in normal mice. The mice were administered Suc-Ile-Ala-Leu-Dox at a single intravenous bolus dose of 117 mg/kg. Plasma samples were obtained at 1 and 4 hours. Plasma samples of 100 μl were transferred to microcentrifuge tubes (1.5 mL) and an internal standard of daunorubicin (20 μL at 0.5 mg/ml) was added together with acetonitrile (400 μl). The tubes were capped and briefly vortexed followed by centrifugation at 14,000 rpm. 420 μl from each tube was removed and dried in vacuo. Each sample was reconstituted in 65 μl 20 mM aqueous ammonium formate pH 4.5 buffer (AF) containing acetonitrile (20%) prior to analysis by reverse phase liquid chromatography in combination with tandem mass spectrometry (LC MS/MS).
Urine was collected at 2 and 24 hours post administration from pairs of mice in metabolic cages. Urine samples were diluted with AF containing acetonitrile (20%) to give a target analyte concentration within the practical range of the LC MS/MS assay. 30 μl of each diluted sample was placed in an Eppendorf tube (1.5 ml) and an internal standard of daunorubicin (20 μL at 0.5 mg/ml) was added together with 50 μl of AF containing acetonitrile (20%). Each sample was then analyzed by LC MS/MS.
An Agilent HP1100 HPLC with DAD detector and Chemstation software was coupled to a PE Sciex API 365 mass spectrometer with an electrospray ion source. HPLC was performed on a TSK-Gel Super ODS, […], 4.6×50 mm (TosoHaas) reversed phase column equipped with a […] C18 guard disc (Higgins Analytical) and stainless steel frit (Upchurch Scientific). Chromatography was performed at room temperature. The flow rate was 0.5 ml/min. Injection volume was 50 μL. Gradient elution was performed using a mobile phase of 20 mM aqueous AF pH 4.5 buffer with increasing amounts of acetonitrile. The API 365 was operated at 365° C. in a multiple reaction monitoring mode, set to monitor specific analyte parent-daughter ion pairs. Integration of chromatograms was performed by MacQuant software (PE Sciex) and quantitation of each analyte obtained by comparison to previously obtained calibration curves. Daunorubicin was used as an internal standard in all cases.
For the calculation of percent of administered dose, plasma volume was estimated to be 40% of blood volume, which was calculated as 7% of animal's body weight. At 2 and 24 hours the parent compound was detected in urine at 3.9% and 15.0% of the administered dose, showing that the kidney is a major organ of excretion for the prodrug (FIG. 17).
Plasma samples were obtained at 1 and 4 hours from separate mice. Urine was collected at 2 and 24 hours post administration from pairs of mice in metabolic cages. The plasma and urine samples were prepared and analyzed as described in Example 17.

[2] = test system: normal ICR mice; assay: Second single dose Maximum Tolerated Dose (SD-MTD) study, 49 days; details: for SD-MTD Molar Ratio (Dox=): relative to doxorubicin on a molar basis
Procedure: In a second single dose Maximum Tolerated Dose (SD-MTD) study, groups of five normal ICR mice were administered intravenous bolus doses of Suc-βAla-Leu-Ala-Leu-Dox. The mice were observed daily for 49 days and body weights measured twice weekly.
In a second single dose Maximum Tolerated Dose (SD-MTD) study, groups of five normal ICR mice were administered intravenous bolus doses of Suc-Leu-Ala-Leu-Dox. The mice were observed daily for 49 days and body weights measured twice weekly.
In a second single dose Maximum Tolerated Dose (SD-MTD) study, groups of five normal ICR mice were administered intravenously bolus doses of Suc-Ile-Ala-Leu-Dox. The mice were observed daily for 49 days and body weights measured twice weekly.
In a second single dose Maximum Tolerated Dose (SD-MTD) study, groups of five normal ICR mice were administered intravenous bolus doses of Suc-βAla-Ile-Ala-Leu-Dox. The mice were observed daily for 49 days and body weights measured twice weekly.

[3] = test system: PC-3 (prostate carcinoma) cells; assay: cells; format: cell-based, human
Procedure: (§1) Adherent cells, LNCaP (prostate carcinoma), HT-29 (colon carcinoma) and PC-3 (prostate carcinoma), were cultured in DMEM media containing 10% heat inactivated fetal calf serum (FCS). On the day of the study the cells were detached from the plate with a trypsin solution. The collected cells were washed and resuspended at a concentration of 0.25×10^6 cells/ml in DMEM containing 10% FCS. 100 μl of cell suspension were added to 96 well plates and the plates were incubated for 3 hours to allow the cells to adhere. […] The plates were then incubated for 24 hours, pulsed with 10 μl of a 100 μCi/ml ^3H-thymidine and incubated for an additional 24 hours (total incubation time 48 hours). The plates were harvested using a 96 well Harvester (Packard Instruments) and counted on a Packard Top Count Counter. Four parameter logistic curves were fitted to the ^3H-thymidine incorporation as a function of drug molarity using Prism software to determine IC50 values.
as §1, with “carcinoma), PC-3 (prostate” for “carcinoma), HT-29 (colon”, “and 22 RV1” for “and PC-3”, “with 1:0” for “with 10”

[4] = test system: LNCaP human prostate carcinoma xenografts
Procedure: LNCaP human prostate carcinoma cells express high levels of CD10 on the surface. Suc-βAla-Leu-Ala-Leu-Dox and Suc-Leu-Ala-Gly-Dox were tested at a single dose level Q7Dx5. […] The mice were weighed and tumors were measured (by caliper) at least once a week prior to start of dosing (Day 0), then twice a week during the study. Immediately before the start of dosing (Study Day −2 to Day 0), mice were randomized to various groups based on the weight of the tumors. […] Mice were euthanized after the tumors reached a cutoff weight of 1.5 g (cancer endpoint), or when mice suffered over 25% weight loss (toxic endpoint). Studies were terminated at Day 60.

[5] = test system: CD10 transfected CHO cells, Clone #7; assay: 3H thymidine proliferation assay, CD10 transfected CHO Clone #7
Procedure: The fully assembled coding region was sub-cloned into a mammalian expression vector, downstream of the hCMV-MIE promoter. DNA sequence analysis confirmed sequence identity with the coding sequence of human CD10 (Genbank accession number Y00811). The expression plasmid was linearized and stably transfected into CHO—S cells. CD10 expressing transfectant clones were selected under 500 ug/mL of hygromycin and screened by flow cytometry for cell-surface CD10 expression using a commercially available anti-CD10-FITC antibody.

[6] = Dose 75 mg/kg (Table 19), Q7DX5

**Q.** Which dose excreted ([1]; mouse, in vivo, after Suc-Ile-Ala-Leu-Dox 117 mg/kg, collected 0-2 hours, read-out: Urine (% adm. dose) 2 hr) does the source give for `CC[C@H](C)[C@H](NC(=O)CCC(=O)O)C(=O)N[C@@H](C)C(=O)N[C@@H](CC(C)C)C(=O)N[C@H]1C[C@H](O[C@H]2C[C@](O)(C(=O)CO)Cc3c(O)c4c(c(O)c32)C(=O)c2c(OC)cccc2C4=O)O[C@@H](C)[C@H]1O` [Suc-Ile-Ala-Leu-Dox] here?
**A.** 3.9%

**Q.** What about the dose excreted ([1]; mouse, in vivo, after Suc-Ile-Ala-Leu-Dox 117 mg/kg, collected 2-24 hours, read-out: Urine (% adm. dose) 24 hr) of the same molecule?
**A.** 15%

**Q.** What about the “SD-MTD” value ([2]; intravenous bolus, Day 49) of the same molecule?
**A.** 94 mg/kg

**Q.** What about the “SD-MTD Molar Ratio (Dox=)” value [2] of the same molecule?
**A.** 3.5

**Q.** And the IC50 ([3]; 48 hours total incubation, read-out: IC50 PC-3)?
**A.** 88000 nM

**Q.** Which “Tumor Growth Inhibition (% over control)” value ([4]; Dose 5 mg/kg, Q7DX5) does the source give for `COc1cccc2c1C(=O)c1c(O)c3c(c(O)c1C2=O)C[C@@](O)(C(=O)CO)C[C@@H]3O[C@H]1C[C@H](N)[C@H](O)[C@H](C)O1` [Doxorubicin, reference compound] here?
**A.** 32.5%

**Q.** And the “Tumor Weight (mg) D14” value ([4]; Dose 5 mg/kg, Q7DX5)?
**A.** D14: 567 ± 77 (n = 6) mg

**Q.** And the “Toxicity (Weight Loss >25%)” value ([4]; male, NCr nude, mouse, in vivo, 5 mg/kg, 60 days)?
**A.** 4/6

**Q.** What about the “Urine (% adm. dose) 2 hr” value ([1]; after Suc-Ile-Ala-Leu-Dox 117 mg/kg, collected 0-2 hours) of the same molecule?
**A.** 0.06 % adm. dose

**Q.** And the “Urine (% adm. dose) 24 hr” value ([1]; after Suc-Ile-Ala-Leu-Dox 117 mg/kg, collected 2-24 hours)?
**A.** 0.36 % adm. dose

**Q.** What about the “Plasma (% adm. dose) 4 hr” value ([1]; mouse, in vivo, 4 h) of the same molecule?
**A.** 0.00 % adm. dose

**Q.** And the IC50 ([5]; Cricetulus griseus, CHO, read-out: IC50 Clone #7)?
**A.** 640 nM

**Q.** And the IC50 ([3]; Homo sapiens, PC-3, 48 hours total incubation, read-out: IC50 PC-3)?
**A.** 75 nM

**Q.** And the IC50 ([3]; Homo sapiens, PC-3, Table 6, 48 hours, read-out: IC50 PC-3 CD10−PSA−)?
**A.** 40 nM

**Q.** What does the source list for `CC[C@H](C)[C@H](NC(=O)CCNC(=O)CCC(=O)O)C(=O)N[C@@H](C)C(=O)N[C@@H](CC(C)C)C(=O)N[C@H]1C[C@H](O[C@H]2C[C@](O)(C(=O)CO)Cc3c(O)c4c(c(O)c32)C(=O)c2c(OC)cccc2C4=O)O[C@@H](C)[C@H]1O` [Suc-βAla-Ile-Ala-Leu-Dox]?
**A.** dose excreted ([1]; mouse, in vivo, Urine (% adm. dose) 2 hr): 12.7%; dose excreted ([1]; mouse, in vivo, Urine (% adm. dose) 24 hr): 4.81%; animals euthanized due to weight loss or paralysis ([2]; 100 mg/kg, by Day 21, groups of five): three; SD-MTD Molar Ratio (Dox=) [2]: 2.6; Ratio Suc-β-Ala-Ile-Ala-Leu/Dox ([5]; Clone #7, ratio of IC50): 17

**Q.** What does the source list for `COc1cccc2c1C(=O)c1c(O)c3c(c(O)c1C2=O)C[C@@](O)(C(=O)CO)C[C@@H]3O[C@H]1C[C@H](NC(=O)[C@H](CC(C)C)NC(=O)[C@H](C)NC(=O)[C@H](CC(C)C)NC(=O)CCNC(=O)CCC(=O)O)[C@H](O)[C@H](C)O1` [Suc-βAla-Leu-Ala-Leu-Dox]?
**A.** Tumor Growth Inhibition (% over control) D14 [4, 6]: D14: 53.4** %; Tumor Growth Inhibition (% over control) D21 [4, 6]: D21: 66.2** %; Tumor Weight (mg) D14 [4, 6]: D14: 391 ± 70 (n = 7) mg; Tumor Weight (mg) D21 [4, 6]: D21: 318 ± 67 (n = 7) mg; Toxicity (Weight Loss >25%) ([4]; Dose 75 mg/kg (Table 19), Q7DX5, mice affected/total): 7/7; mortality ([2]; 75 mg/kg dose group, by Day 35): 40%
